According to US20010034362A1, “Pyrrolidine derivatives for vision and memory disorders” (Guilford Pharmaceuticals Inc., priority 1998, published 2001):
Marks after values point to notes of the source that are not given here.

How the values were obtained:
[1] = test system: retinal ganglion cells and optic nerve axons; assay: In vivo retinal ganglion cell and optic nerve axon tests after optic nerve transection, 14 or 28 day treatment, sacrifice at 90 days; parameters: species or system Sprague Dawley rats; conditions: for RGC Counts: mean density ± SEM of Fluoro-gold labeled RGC in 400 μm × 400 μm gridfields; for ON Axon density: mean ± SEM of RT97 labeled axons in 200 μm × 200 μm region; for increased ON axon density: adjusted for optic nerve diameter; for ON axon Count: calculated by multiplying axonal density by ON area; for Proximal optic nerve myclin basic protein Density: ± SEM, 20X analysis of % areal coverage
Excerpt: Complete transection of the optic nerve 5 mm from the eyeball produces massive degeneration of retinal ganglion cells, representing loss of >87% of the normal ganglion cell population 90 days after the injury (Table 1). Few spared fluorogold pre labeled ganglion cells are present in vehicle treated cases (large-white figures) among a population of small microglia that digest the debris of the degenerating cells and take up the fluorogold label (FIG. 3A).
90 days after transection few ganglion cell axons remain within the optic nerve (FIG. 4B), representing only 5.6% of the normal population. The loss of axons reflects both the death of retinal ganglion cells and the regression or “dying back” of the axons of ˜70% of the small surviving ganglion cell population into the retina itself (Table 1).
Myelin basic protein immunchistochemistry labels fascicles (darker labeled ‘islands’) of myelinated axons in the normal optic nerve (FIG. 6A, upper left). 90 days after transection extensive degeneration of myelin is evident in vehicle treated cases, characterized by the loss of fascicular organization and the appearance of numerous large dense degenerating myelin figures (FIG. 6B, upper right).
Complete transection of the optic nerve leads to degeneration of the distal segments (axon fragments disconnected from the ganglion cell bodies), and the degeneration of their myelin sheaths.
All eyes and optic nerves stumps were removed.

[2] = Clearance (Table V comments); format: in vitro ADME
[3] = test system: retinal ganglion cell axons; assay: Protection of retinal ganglion cell axons from degeneration following optic nerve transection (Table V); format: in vivo; conditions: ± SEM
Excerpt: Efficacy of representative compounds from different immunophilin ligand series in protecing retinal gangiou cell axons from degeneration following optic nerve transection is set forth in Table V.

[4] = test system: retinal ganglion cells, optic nerve axons and myelin; assay: Retinal ischemia by raised intraocular pressure, examined 28 days after the episode; format: in vivo, adult rats
Excerpt: Retinal ganglion cells were retrogradely labeled in adult rats by bilateral injection of fluorogold in their lateral geniculate nuclei. Labeled ganglion cells in the normal rat retina appear as white profiles against the dark background (FIG. 1A). Complete retinal ischemia was produced by infusing normal saline solution into the retinal vitreous cavity of each eye until the intraocular pressure exceeded arterial blood pressure. 28 days after the ischemic episode extensive degeneration of retinal ganglion cell was evidenced by massive reduction in the density of fluorogold labeled cells (FIG. 1B).
Optic nerves from vehicle treated cases examined 28 days after a 1 hour retinal ischemic episode are characterized by a decreased density of optic nerve axons and the appearance of numerous degenerating myelin figures (bright white filled circles).

retina = assay: Streptozotocin induced diabetes, retinal neovascularization and neuronal loss; format: in vivo
retinal ganglion cells = assay: Example 17: optic nerve transection, GPI-1046 for 28 days, sacrifice at 90 days; format: in vivo, Sprague Dawley rats; conditions: 10 mg/kg/day s.c. for 28 days
Excerpt: Transection of the mammalian optic nerve results in a brief period of abortive regeneration, but the majority of axotomized neurons die and the axons from many persisting ganglion cells die back beyond the optic nerve head.

[5] = test system: streptozotocin-induced diabetic rat; assay: Streptozotocin-induced diabetic sensory neuropathy, hot plate and tail flick; format: in vivo, Male Wistar rats; conditions: lesioned animals treated for 6 weeks at 10 mg/kg s.c.
Experimental: The procedure involved using Male Wistar rats which were given a single injection of streptozotocin (65 mg/kg i.v.). Blood glucose levels were determined weekly for the first three weeks and on the last week of the experiment. Animals were evaluated weekly for signs of sensory neuropathy using the conventional hot plate and tail flick apparatus test procedures.

aged mice = assay: Morris watermaze, spatial learning and memory in aged rodents; format: in vivo, C57BL/6N-Nia mice; conditions: aged impaired mice, 10 mg/kg daily, retention testing after 3 weeks of dosing
Excerpt: The Morris watermaze is widely used for assessing spatial memory formation and retention in experimental animals. The test deoends on the animal's ability to utilize spatial visual information in order to locate a submerged escape platform in a water tank. It is important that the tank itself be as devoid of specific visual features as possible—thus, it is always circular in shape, the sides are kept smooth and in uniform dull colors, and the water is rendered opacue with nontoxic watercolour pigment or powdered milk. This is to ensure that the animal navigates only by the use of more distant visual cues, or by the use of intra-maze cues specifically provided by the experimenter. The animals' path, speed, and swim time are tracked with a ceiling camera for lacer computerized analysis. Over the course of several successive trials, spatial learning can therefore be defined as a drop of distance swum, or time elapsed, from placement in the tank until escape onto the invisible platform. The procedure involved using three-month old (young) and 18-19 month old male C57BL/6N-Nia (aged) mice which habituated to the well known and conventional Morris watermaze during a 4 trials/day, 3-4 day visible platform training phase. […] Swim Distances (cm) were analyzed in a 7×5 ANOVA including Groups and Blocks (1-5) as factors in the analysis, treating Blocks as a repeated measure.

[6] = 14 days GPI 1046, 90 days after transection
[7] = 28 days GPI 1046, 90 days after transection
[8] = 28 day treatment beginning 8 weeks after onset of streptozotocin induced diabetes

CCC(C)(C)C(=O)C(=O)N1CCC[C@H]1C(=O)OCCCc1cccnc1 [GPI 1046, 3-(3-pyridyl) -1-propyl (2s) -1-(3,3-dimethyl-1,2-dioxopentyl) -2-pyrrolidinecarboxylate]
RGC Counts ([1]; 14 days GPI 1046 10 mg/kg/day sc, 90 days after transection): small but not significant increase
% RGCs Rescued [1, 6]: 5.3%
% surviving RGCs with ON axons [1, 6]: 33.6%
ON head area (% sham) [1, 6]: 76%
Spared RGC population [1, 6]: 20,275
ON Axon density [1, 6]: 569 ± 23
increased ON axon density ([1]; 14 days GPI 1046): 1.5X
ON axon Count ([1]; 14 days GPI 1046): 6820
Distal optic nerve stump shrinkage ([1]; 14 days GPI 1046, cross sectional area compared to sham control): did not protect against shrinkage of the distal stump
Distal optic nerve myclin base protein Density, loss ([1]; 14 days GPI 1046, cross sectional area multiplied by myelin density): slightly increase the density of myelin
Proximal optic nerve myclin basic protein Density ([1]; 14 days GPI 1046): 1.6 ± 3.0 SEM % recovery
RGC Counts ([1]; 28 days GPI 1046 10 mg/kg/day sc, 90 days after transection): 67.9 ± 5.8
% surviving RGCs with ON axons [1, 7]: 81.4%
ON head area (% sham) [1, 7]: 95%*
Spared RGC population [1, 7]: 28,096*
ON Axon density [1, 7]: significant increase in the density of large, and particularly medium and small caliber optic nerve axons
increased ON axon density ([1]; 28 days GPI 1046): 5.0X
ON axon Count ([1]; 28 days GPI 1046): 22,861*
Distal optic nerve stump, less shrinkage ([1]; 28 days GPI 1046, cross sectional area compared to sham control): prevented cross sectional shrinkage
Proximal optic nerve myclin basic protein Density ([1]; 28 days GPI 1046): 70 ± 6.3 SEM % recovery
protection of optic nerve axons ([1]; first 14 days GPI 1046, proximal stump, 90 days after transection): 5.3%
Clearance [2]: 63.8 µL/min
RT97 + RGC axon density 14 days after ON transection (% ON axons rescued) [3]: 60.5% ± 3.9 SEM
protection of retinal ganglion cells (fluorogold labeled cell density) ([4]; 10 mg/kg s.c. 1 hour prior to ischemia and 10 mg/kg/day for next four days, 28 days after ischemia): noticeable protection of a large proportion of the vulnerable ganglion cell population
density of degenerating myelin figures ([4]; 28 days after 1 hour retinal ischemic episode): dramatically decreased
protection of optic nerve axons from ischemic degeneration ([4]; 28 days after 1 hour retinal ischemic episode, toluidine blue staining): protected the majority of optic nerve axons from degeneration
loss of neurons in the INL and GCL (retina; 28 day treatment beginning 8 weeks after onset of diabetes, compared to streptozotocin/vehicle controls): appeared to decrease the loss of neurons in both the INL and GCL
neovascularization in the PR, ONL, OPL and INL (retina; [8]): reduced neovascularization
neuronal loss in the ONL (retina; [8]): did not appear to protect against neuronal loss in the ONL
ganglion cell population spared (perikaryal neuroprotection) (retinal ganglion cells; 90 days after transection): 25%
preservation of axons in the proximal stump of the transected nerve (retinal ganglion cells; RT97 neurofilament immunohistochemistry): preserved the axons of virtually ali croteczed neurons
hot plate and tail flick latency [5]: improvement in latency
spatial memory performance (swim distance, retention testing) (aged mice): significantly enhanced spatial memory performance
